Data from patent publication US8394814B2, “Method of purifying crude noscapine” (priority 2008, dated 2013).
Where two headings read alike, the source gives them in different places.

Experiments:
[1] = format: physicochemical; settings: for Solubility: room temperature; for Reduction of the solubility of noscapine by adding an equal amount of water: Table 1 compared with Table 2
Method: Noscapine solubility was also determined at room temperature for the following solvent mixtures, mixed in a roughly 1:1 ratio by weight: acetone:water, acetonitrile:water, chloroform:ethanol, toluene:ethanol. Solubilities were determined using methods similar to those described above, and the measured solubilities are summarized in Table 2.

[2] = format: physicochemical; settings: for Solubility: neutral pH
Method: To determine the solubility of noscapine in a variety of different solvents at neutral pH, the following experiment was conducted. Noscapine solubility was determined at ambient temperature (22° C.-23° C.) and at 50° C. by dissolving noscapine and noting the amount dissolved prior to saturation for the following solvents: acetone, acetonitrile, ethanol, isopropanol, methanol, pentanol, toluene, and water.

[3] = format: physicochemical
Method: To characterize the solubility of noscapine in acetonitrile/water systems, the following experiment was conducted. […] The results of the solubility measurements are summarized in Table 3 and are summarized in a graph in FIG. 8.

COc1ccc2c(c1OC)C(=O)O[C@@H]2[C@H]1c2c(cc3c(c2OC)OCO3)CCN1C [noscapine]
Solubility ([1]; Acetone 49.4% / Water 50.6% by weight): 3.21 mg noscapine/g of solvent
Solubility ([1]; Acetonitrile 48.6% / Water 51.4% by weight): 1.06 mg noscapine/g of solvent
Solubility ([1]; Chloroform 50.0% / Ethanol 50.0% by weight): 73.34 mg noscapine/g of solvent
Solubility ([1]; Toluene 51.0% / Ethanol 49.0% by weight): 37.21 mg noscapine/g of solvent
Reduction of the solubility of noscapine by adding an equal amount of water ([1]; second solvent of 'acetone and water' as printed): about 98%
Reduction of the solubility of noscapine by adding an equal amount of water ([1]; solvent acetone): about 95%
Solubility ([2]; Acetone, 23° C.): 68.56 mg of noscapine/g of solvent
Solubility ([2]; Acetone, 50° C.): 145.98 mg of noscapine/g of solvent
Solubility ([2]; Acetonitrile, 23° C.): 52.33 mg of noscapine/g of solvent
Solubility ([2]; Acetonitrile, 50° C.): 151.21 mg of noscapine/g of solvent
Solubility ([2]; Chloroform, 23° C.): 504.11 mg of noscapine/g of solvent
Solubility ([2]; Ethanol, 50° C.): 5.90 mg of noscapine/g of solvent
Solubility ([2]; Isopropanol, 50° C.): 12.99 mg of noscapine/g of solvent
Solubility ([2]; Methanol, 50° C.): 1.81 mg of noscapine/g of solvent
Solubility ([2]; Pentanol, 50° C.): 12.29 mg of noscapine/g of solvent
Solubility ([2]; Toluene, 23° C.): 40.65 mg of noscapine/g of solvent
Solubility ([2]; Toluene, 50° C.): 59.99 mg of noscapine/g of solvent
Solubility ([2]; Water, 50° C.): 0.82 mg of noscapine/g of solvent
Solubility in words ([2]; chloroform): highly soluble
Solubility in words ([2]; water): nearly insoluble
Solubility ([3]; 0% acetonitrile by weight in water, 50° C.): 0.2 mg noscapine per gram of solve
Solubility ([3]; 0% acetonitrile by weight in water, 70° C.): 0.2 mg noscapine per gram of solve
Solubility ([3]; 20% acetonitrile by weight in water, 50° C.): 0.8 mg noscapine per gram of solve
Solubility ([3]; 20% acetonitrile by weight in water, 70° C.): 1.4 mg noscapine per gram of solve
Solubility ([3]; 40% acetonitrile by weight in water, 50° C.): 8.1 mg noscapine per gram of solve
Solubility ([3]; 40% acetonitrile by weight in water, 70° C.): 6.7 mg noscapine per gram of solve
Solubility ([3]; 60% acetonitrile by weight in water, 50° C.): 32.6 mg noscapine per gram of solve
Solubility ([3]; 60% acetonitrile by weight in water, 70° C.): 46.3 mg noscapine per gram of solve
Solubility ([3]; 80% acetonitrile by weight in water, 50° C.): 82.8 mg noscapine per gram of solve
Solubility ([3]; 80% acetonitrile by weight in water, 70° C.): 181.9 mg noscapine per gram of solve
Solubility ([3]; 100% acetonitrile by weight, 50° C.): 131.0 mg noscapine per gram of solve
Solubility ([3]; 100% acetonitrile by weight, 70° C.): 226.5 mg noscapine per gram of solve
Change of solubility in acetonitrile with temperature ([3]; acetonitrile, temperature increased from 22° C. to 50° C.): more than doubles
Increase of solubility in the acetonitrile/water mixture ([3]; between 0° C. and 70° C., acetonitrile concentrations of about 50% or above): up to 10 fold
Ratio of the solubility in pure acetonitrile to the solubility in pure water ([3]; solvent temperature 0° C.): about 78
Ratio of the solubility in pure acetonitrile to the solubility in pure water ([3]; solvent temperature 70° C.): about 647
